Assay results as given in PubChem BioAssay (NCI).
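Results reflect a 48-hour exposure of cells in 96-well plates to compound at five concentrations. TGI: concentration producing complete growth inhibition.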

Experiments:
Test in all cases: inhibition of tumour cell growth, NCI panel, 48 h
HCC-2998 colon = test system: HCC-2998 colon
HS 578T breast = test system: HS 578T breast
K-562 leukemia = test system: K-562 leukemia
MALME-3M melanoma = test system: MALME-3M melanoma
MDA-MB-435 = test system: MDA-MB-435
MOLT-4 leukemia = test system: MOLT-4 leukemia
OVCAR-3 ovarian = test system: OVCAR-3 ovarian
OVCAR-5 ovarian = test system: OVCAR-5 ovarian
RPMI-8226 leukemia = test system: RPMI-8226 leukemia
SF-268 CNS = test system: SF-268 CNS

| Structure (SMILES) | TGI (HCC-2998 colon) [µM] | TGI (HS 578T breast) [µM] | TGI (K-562 leukemia) [µM] | TGI (MALME-3M melanoma) [µM] | TGI (MDA-MB-435) [µM] | TGI (MOLT-4 leukemia) [µM] | TGI (OVCAR-3 ovarian) [µM] | TGI (OVCAR-5 ovarian) [µM] | TGI (RPMI-8226 leukemia) [µM] | TGI (SF-268 CNS) [µM] |
| --- | --- | --- | --- | --- | --- | --- | --- | --- | --- | --- |
| CC(C)c1cccc(C(C)C)c1NC(=O)/C(CC(=O)CC(c1ccccc1)c1c(O)c2ccccc2oc1=O)=N/O (stereo not drawn) | > 100 | > 100 | > 100 | > 100 | > 100 | > 100 | > 100 | > 100 | > 100 | > 100 |
| Nc1nc(Cl)cc(NCC2(O)CC2)n1 | > 100 | > 100 | > 100 | > 100 | > 100 | > 100 | > 100 | > 100 | > 100 | > 100 |
| COc1ccc(-c2c3c(n(C4OC(CO)C(O)C(O)C4O)c(=S)c2C#N)CCC3)cc1 (stereo not drawn) | > 100 | > 100 | > 100 | > 100 | > 100 | 85.4 | 69.6 | > 100 | > 100 | > 100 |
| C/C=C(/C)C(=O)OC1CC(C)[C@H]2CC(=O)C(C)=C2CC1C(C)(C)OC(C)=O (stereo partly drawn) | 72.1 | > 100 | > 100 | 54 | 68.6 | 76.8 | 45.4 | > 100 | 60.8 | > 100 |
| CC1CCC2(NC1)OC1CC3C4CC=C5CC(OC6OC(CO)C(OC7OC(C)C(O)C(O)C7O)C(O)C6OC6OC(C)C(O)C(O)C6O)CCC5(C)C4CCC3(C)C1C2C (stereo not drawn) | 4.72 | 15.6 | 28.7 | 9.23 | 5 | 26.7 | 4.09 | 16.1 | 32.5 | 4.05 |
| CS(=O)(=O)Nc1ccc2c(c1)N(S(C)(=O)=O)CC2CCl (stereo not drawn) | > 100 | > 100 | > 100 | > 100 | > 100 | > 100 | > 100 | > 100 | > 100 | > 100 |
| O=C1C=CC=C/C1=C1\N=C(c2ccccc2OCC(=O)c2ccccc2)SS1 | > 100 | > 100 | > 100 | > 100 | > 100 | 47.2 | > 100 | > 100 | > 100 | > 100 |
| Cc1ccc2c(c1)-c1c(C#N)c(N)nc(-c3ccc(Cl)cc3)c1CCS2(=O)=O | > 100 | 64.6 | 7.02 | > 100 | > 79.2 | 68.7 | 44.4 | > 100 | 8.45 | > 100 |
| C=C1C(OC2O[C@@H]3O[C@@]4(C)CC[C@H]5[C@H](C)CC[C@@H](C2=C)[C@@]35O4)O[C@@H]2O[C@@]3(C)CC[C@H]4[C@H](C)CC[C@@H]1[C@@]24O3 (stereo partly drawn) | > 50 | > 50 | > 50 | > 50 | > 50 | > 50 | > 50 | > 50 | > 50 | > 50 |
| CC1C(NNc2ccccc2)Oc2cc3c(cc2C1c1ccccc1O)OCO3 (stereo not drawn) | 17 | 42.7 | 4.34 | 10.4 | 12.5 | 19.2 | 24.1 | 19.1 | 24.7 | 32.6 |
| CN(C)c1ccc(/C=C(\NC(=O)c2ccccc2)c2nn(C)c(=O)o2)cc1 | > 100 | > 100 | > 100 | > 100 | > 100 | > 100 | > 100 | > 100 | > 100 | > 100 |
| O=C(OCCN=c1c2ccccc2ccc2ccccc12)c1ccccc1 | > 100 | > 100 | > 100 | > 100 | > 100 | > 100 | > 100 | > 100 | > 100 | > 100 |
| Cc1[nH]c(=O)nc(NCCNCCO)c1C(=O)Nc1cccc2cc3ccccc3cc12 | > 100 | > 100 | > 100 | > 100 | > 100 | > 100 | > 100 | > 100 | > 100 | > 100 |
| O=c1nc2c(c(-c3ccc(Br)cc3)[nH]1)COC/C2=C\c1ccc(Br)cc1 | > 50 | > 50 | > 50 | > 50 | > 50 | > 50 | > 50 | > 50 | > 50 | > 50 |
| O=c1[nH]c2nc3ccccc3nc2[nH]c1=O | > 100 | > 100 | > 100 | > 100 | > 100 | > 100 | > 100 | > 100 | > 100 | > 100 |
| COc1ccc(/C=c2\s/c(=C3/SC(=S)N(c4ccccc4)C3=O)n(-c3ccccc3)c2=O)cc1 | > 100 | 74 | > 100 | > 100 | > 100 | 72.8 | > 100 | > 100 | > 100 | 26.9 |
| COc1ccc(OC2OC(CO)C(OCc3ccccc3)C(OCc3ccccc3)C2OCc2ccccc2)cc1 (stereo not drawn) | > 100 | > 100 | > 100 | > 100 | > 100 | 72.9 | > 100 | > 100 | > 100 | > 100 |
| O=S(=O)(c1cc(Cl)ccc1Cl)n1ccnc1 | 42.4 | > 100 | > 100 | > 100 | 37 | > 100 | > 100 | > 100 | 91.6 | > 100 |

| Structure (SMILES) | TGI (HCC-2998 colon) [µM] | TGI (HS 578T breast) [µM] | TGI (K-562 leukemia) [µM] | TGI (MALME-3M melanoma) [µM] | TGI (MDA-MB-435) [µM] | TGI (MOLT-4 leukemia) [µM] | TGI (OVCAR-3 ovarian) [µM] | TGI (OVCAR-5 ovarian) [µM] | TGI (RPMI-8226 leukemia) [µM] | TGI (SF-268 CNS) [µM] |
| --- | --- | --- | --- | --- | --- | --- | --- | --- | --- | --- |
| CN(C)CCCNC(=O)c1cc(NC(=O)c2cc(NC(=O)CCCn3c4ccccc4c4ccccc43)cn2C)cn1C | 18.7 | 49.7 | 11.6 | > 49 | > 61.7 | > 23.1 | > 72.5 | > 57.7 | 39.3 | 41.6 |
| COC(=O)Cc1ccc2c(cnn2-c2ccccc2)c1OC | > 10 | > 10 | > 10 | > 10 | > 10 | > 10 | > 10 | > 10 | > 10 | > 10 |
| Cc1cc2c(O)c(c1)CN(CC(=O)O)Cc1cc(C)cc(c1O)CN(CC(=O)O)Cc1cc(C)cc(c1O)CN(CC(=O)O)C2 | > 100 | > 100 | > 100 | > 100 | > 100 | > 100 | > 100 | > 100 | > 100 | > 100 |
| C=C(C)OCOCCOC | > 100 | > 100 | > 100 | > 100 | > 100 | > 100 | > 100 | > 100 | > 100 | > 100 |
| CCC(O)(Cc1ccc(OC)cc1)c1ccc(OC)cc1 (stereo not drawn) | > 100 | > 100 | > 100 | > 100 | > 100 | > 100 | > 100 | > 100 | > 100 | > 100 |
| O=C1C=CC(=O)c2c(O)c(N3CCC[C@H]3CO)c(Cl)c(O)c21 | > 6.61 | > 8.27 | 1.87 | 3.21 | 3.45 | 1.95 | > 7.45 | > 10 | 1.09 | > 10 |
| c1ccc2c(c1)Sc1nccc3ccnc-2c13 | > 100 | 65.3 | > 100 | > 100 | > 100 | 56.6 | > 100 | > 100 | > 100 | > 100 |
| C[C@]12CCC(=O)[C@@H](CCC3=CC(=O)C=CC3=O)[C@@H]1CCC2=O | 31.4 | 43.6 | > 100 | 37.9 | > 56.2 | > 100 | 36 | > 75.1 | > 100 | 39.5 |
| N#CC1(O)CCCCCCCCCCC1 | > 100 | > 100 | > 100 | > 100 | > 100 | > 100 | > 100 | > 100 | > 100 | > 100 |
| O=c1c(Cc2ccc(Cl)cc2)nnc2sc(-c3ccc(-c4ccc(F)c(Cl)c4)o3)nn12 | > 100 | > 100 | > 100 | > 100 | > 100 | > 100 |  | > 100 | > 100 | > 100 |
| COc1ccccc1CN=C1Nc2ccncc2S(=O)(=O)N1c1ccccc1 | > 100 | > 100 | > 100 | > 100 | > 100 | > 100 | > 100 | > 100 | > 100 |  |
| CCP(=O)(OC)C1=CCN(C(=O)OCC[Si](C)(C)C)CC1 (stereo not drawn) | > 100 | > 100 | > 100 | > 100 | > 100 | > 100 | > 100 | > 100 | > 100 | > 100 |
| Cc1cc2ncn(C3CCCCO3)c2cc1C (stereo not drawn) | > 100 | > 100 | > 100 | > 100 | > 100 | > 100 | > 100 | > 100 | > 100 | > 100 |
| Cn1c(=O)c(-c2ccccc2)c(O)c2ccccc21 | > 100 | > 100 | > 100 | > 100 | > 100 | > 100 | > 100 | > 100 | > 100 | > 100 |
| CN(C)CC1CCC/C(=C\c2ccc(OC(=O)c3ccc(Cl)cc3)cc2)C1=O (stereo not drawn) | > 29 | 10.3 | 3.8 | 6.8 | 4.01 | 3.19 | 3.36 | 5.95 | 1.99 | 9.07 |
| COC(=O)C1C(C(=O)OC)C2(OC(c3ccc(Cl)cc3)=CC2=O)C12OC(c1ccc(Cl)cc1)=CC2=O (stereo not drawn) | 36.8 | > 100 | 53.5 | 31.6 | > 100 | 49.2 | 42 | 95.1 | 37.2 | 73.5 |
| COc1ccccc1C1Nn2c(nc3ccccc3c2=O)N1c1ccc(C)cc1 (stereo not drawn) | 17.5 | 27.9 | 33.8 | 38.7 | 22.7 | 11.4 | 18.6 | 26.6 | 25.9 | 25.1 |
